Test results as given in patent US20240271082A1, “[…]-MODIFIED SAC[…] STRAINS AS PR[…] […] AGENTS” (Fzata, Inc., priority 2021, published 2024).

Key:
[1] = test system: S. boulardii (Sb); test: Methotrexate effective dose in S. boulardii; format: cell-based; details: MTX alone, up to 500 nM, 24 hour reading
Description: Cells were seeded at OD=0.2, 24 hour reading.

[2] = molecular target: hTNF-α (Homo sapiens, UniProt P01375); test: Neutralization of human TNF-α cytotoxicity on L929 cells; details: read-out: IC50, block hTNF-α-induced cytotoxicity
Chain of hTNF-α (P01375 77-233 limits assumed): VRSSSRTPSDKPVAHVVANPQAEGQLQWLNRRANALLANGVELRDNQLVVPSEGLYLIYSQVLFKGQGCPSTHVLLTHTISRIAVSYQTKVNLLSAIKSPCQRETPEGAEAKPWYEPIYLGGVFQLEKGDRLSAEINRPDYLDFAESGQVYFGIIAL
Description: After 24h incubation, the antibody-mediated inhibitions of cytotoxicity were measured.

[3] = test system: patients with COVID-19 pneumonia and systemic hyperinflammation; details: human, in vivo; cited from earlier work
[4] = test system: Crohn's disease; details: systemic administration; cited from earlier work

CN(Cc1cnc2nc(N)nc(N)c2n1)c1ccc(C(=O)N[C@@H](CCC(=O)O)C(=O)O)cc1 [MTX, methotrexate]
growth inhibition of S. boulardii [1]: not enough to cause an effect on growth inhibition

Adalimumab [Humira]
IC50 [2]: 0.028 nM

Mavrilimumab: investigational fully-human monoclonal antibody that targets GM-CSF receptor alpha
proportion of patients alive and off oxygen therapy at day 14 [3]: hyperinflammation. Unfortunately, there was no significant difference

infliximab: anti-TNF monoclonal antibody
clinical response in Crohn's disease [4]: drastic clinical improvement
